Experimental data as given in patent US9192560B2, “Stable composition comprising an anti-ageing compound and a solvent” (CHANEL PARFUMS BEAUTE, priority 2012, dated 2015).
Read-outs that look alike come from different tables or passages of the source. One block for each compound: values may come before it.

Columns and labels:
[1] = Resveratrol stabilization test in solvents (comparative example); format: physicochemical
Protocol: The stabilization of resveratrol by dimethyl isosorbide, ethylhexyl methoxycrylene and octocrylene was evaluated according to the same protocol as Example 1-a, except that the solubility was evaluated on the same day as to (0D).

[2] = Diacetylresveratryl thioctate stabilization test in candidate solvents (solubility at t0 and a day later); conditions: for Solubility 1 D/AT / Solubility t0/AT: diacetylresveratryl thioctate in the named solvent, ambient temperature; for Solubility 1 D/AT: a day later; for Solubility t0/AT: initial; for Stability: stabilization of diacetylresveratryl thioctate by the named solvent
Protocol: The term “stabilization” is intended to mean an absence of crystallization of diacetylresveratryl thioctate after 10 days at 4° C. and six months at AT.
The candidate solvents thus chosen are then subjected to the stabilization test. This test consists in comparing the initial solubility (t0) and the solubility a day later (1D) at ambient temperature (AT).

[3] = Study of olfactory stability of Base with odor absorber
Protocol: A Base composition as follows was prepared. In this composition, octocrylene is used as diacetylresveratryl thioctate-stabilizing solvent.
0.6% of each candidate odor absorber was added to one of the base compositions above and the olfactory stability was tested at three temperatures (ambient temperature, 5° C. and 45° C.) and at the following times: • at the beginning (to), • 1 month (1M), • 2 months (2M) and • 3 months (3M).

[4] = Stability of diacetylresveratryl thioctate in the formulation with odor absorber; format: physicochemical; conditions: 0.6% odor absorber in Base (0.10% diacetylresveratryl thioctate), two months
Protocol: A diacetylresveratryl thioctate stability test was carried out for the odor absorbers retained in Example 3, according to the following protocol, for the purpose of confirming the compatibility between the solvent and the odor absorber.

[5] = listed as ethylhexyl methoxycrylene

Solubility 0 D/AT [1]: Precipitate | Solubility t0/AT [1]: Soluble fraction | Stability [1]: No | Solubility 1 D/AT [2]: Clear | Solubility t0/AT [2]: Partially soluble | Solubility t0/AT [2, 5]: partially soluble | Stability [2]: Yes | Stability [2, 5]: particularly satisfactory
Compound: CCCCC(CC)COC(=O)C(C#N)=C(c1ccccc1)c1ccc(OC)cc1 (stereo not shown) [Ethylhexyl methoxycrylene]

Solubility 1 D/AT [2]: Clear | Solubility t0/AT [2]: Partially soluble | Solubility t0/AT ([2]; listed as trioctyl trimellitate): partially soluble | Stability [2]: Yes
Compound: CCCCCCCCOC(=O)c1ccc(C(=O)OCCCCCCCC)c(C(=O)OCCCCCCCC)c1 [Trioctyl trimellitate]

Compound: O=C(Oc1ccccc1)c1ccccc1 [Phenyl benzoate]
Solubility 1 D/AT [2]: Clear | Solubility t0/AT [2]: Partially soluble | Solubility t0/AT ([2]; listed as phenyl benzoate): partially soluble | Stability [2]: Yes

Solubility 1 D/AT [2]: Precipitate | Solubility t0/AT [2]: Insoluble | stability of diacetylresveratryl thioctate solubilized in a conventional solvent ([2]; general observation of the applicant): recrystallizes | Stability [2]: No
Compound: CCCCCCCCCCC(CO)CCCCCCCC (stereo not shown) [Octyldodecanol]

olfactory stability t0 [3]: Yes
Compound: Kaolin

Solubility 0 D/AT [1]: Precipitate | Solubility t0/AT [1]: Soluble fraction | Stability [1]: No
Compound: CCCCC(CC)COC(=O)C(C#N)=C(c1ccccc1)c1ccccc1 (stereo not shown) [Octocrylene]

Compound: CO[C@H]1CO[C@H]2[C@@H]1OC[C@H]2OC [Dimethyl isosorbide]
Solubility t0/AT ([1]; resveratrol in the named solvent, initial, ambient temperature): Partially soluble | Solubility 0 D/AT ([1]; resveratrol in the named solvent, same day, ambient temperature): Precipitate | Stability ([1]; stabilization of resveratrol by the named solvent): No | Solubility 1 D/AT [2]: Clear | Solubility t0/AT [2]: Partially soluble | Solubility t0/AT ([2]; listed as dimethyl isosorbide): partially soluble | Stability [2]: Yes

Compound: O=C1CC[C@@H](C(=O)[O-])N1.O=C1CC[C@@H](C(=O)[O-])N1.[Cu+2] [Copper L-pyrrolidone carboxylate salt]
olfactory stability 1 M ([3]; 0.6% odor absorber in Base, 1 month, identical at AT, 5° C. and 45° C.): Yes | olfactory stability 2 M 5° C. ([3]; 0.6% odor absorber in Base, 2 months, 5° C.): Yes | olfactory stability 2 M 45° C. ([3]; 0.6% odor absorber in Base, 2 months, 45° C.): Yes | olfactory stability 2 M AT ([3]; 0.6% odor absorber in Base, 2 months, ambient temperature): Yes | olfactory stability 3 M ([3]; 0.6% odor absorber in Base, 3 months, identical at AT, 5° C. and 45° C.): Yes | olfactory stability t0 ([3]; 0.6% odor absorber in Base, identical at AT, 5° C. and 45° C.): Yes | olfactory stability, overall conclusion ([3]; odor absorber in combination with the Base, up to 3 months): the most appropriate | degree of diacetylresveratryl thioctate stabilization 5° C. ([4]; 5° C.): 0.1 | degree of diacetylresveratryl thioctate stabilization 45° C. ([4]; 45° C.): 0.094
